Assay results: the NIST ThermoML archive (doi:10.1021/je900732r)

Experiment: mn = molality of the nth substance listed, in mol/kg
Details: 101 kPa, Liquid

[Ni+2].[O-][Cl+3]([O-])([O-])[O-].[O-][Cl+3]([O-])([O-])[O-] [nickel perchlorate] + C[S+](C)[O-]
mass density [kg/m3]
Details | 293.15 K | 298.15 K | 303.15 K | 313.15 K | 323.15 K | 333.15 K
m1 = 0.01259 | 1102.91 | 1097.89 | 1092.88 | 1082.85 | 1072.82 | 1062.8
m1 = 0.01738 | 1103.94 | 1098.92 | 1093.91 | 1083.88 | 1073.87 | 1063.85
m1 = 0.02515 | 1105.61 | 1100.6 | 1095.59 | 1085.57 | 1075.56 | 1065.56
m1 = 0.03153 | 1106.98 | 1101.97 | 1096.96 | 1086.96 | 1076.96 | 1066.96
m1 = 0.03816 | 1108.41 | 1103.4 | 1098.4 | 1088.4 | 1078.41 | 1068.42
m1 = 0.051 | 1111.18 | 1106.18 | 1101.18 | 1091.2 | 1081.23 | 1071.27
m1 = 0.06341 | 1113.88 | 1108.88 | 1103.89 | 1093.92 | 1083.97 | 1074.01
m1 = 0.07675 | 1116.78 | 1111.79 | 1106.81 | 1096.86 | 1086.92 | 1076.99
m1 = 0.08797 | 1119.23 | 1114.24 | 1109.27 | 1099.34 | 1089.42 | 1079.5
m1 = 0.1004 | 1121.96 | 1116.98 | 1112.02 | 1102.1 | 1092.19 | 1082.3
m1 = 0.1126 | 1124.63 | 1119.67 | 1114.7 | 1104.8 | 1094.91 | 1085.03
m1 = 0.1251 | 1127.4 | 1122.43 | 1117.49 | 1107.6 | 1097.73 | 1087.86

CO [methanol] + [Ni+2].[O-][Cl+3]([O-])([O-])[O-].[O-][Cl+3]([O-])([O-])[O-]
m2 = 0
Details | mass density [kg/m3]
283.15 K | 800.541
288.15 K | 795.866
293.15 K | 791.169
298.15 K | 786.46
303.15 K | 781.733
308.15 K | 776.979
313.15 K | 772.189

C[S+](C)[O-] [dimethyl sulfoxide] + [O-][Cl+3]([O-])([O-])[O-].[O-][Cl+3]([O-])([O-])[O-].[Zn+2]
m2 = 0
Details | mass density [kg/m3]
293.15 K | 1100.23
298.15 K | 1095.2
303.15 K | 1090.18
313.15 K | 1080.12
323.15 K | 1070.08
333.15 K | 1060.04

CO [methanol] + [Co+2].[O-][Cl+3]([O-])([O-])[O-].[O-][Cl+3]([O-])([O-])[O-]
m2 = 0
Details | mass density [kg/m3]
283.15 K | 800.55
288.15 K | 795.872
293.15 K | 791.172
298.15 K | 786.464
303.15 K | 781.742
308.15 K | 776.992
313.15 K | 772.214

C[S+](C)[O-] [dimethyl sulfoxide] + [Co+2].[O-][Cl+3]([O-])([O-])[O-].[O-][Cl+3]([O-])([O-])[O-]
m2 = 0
Details | mass density [kg/m3]
293.15 K | 1100.22
298.15 K | 1095.19
303.15 K | 1090.18
313.15 K | 1080.12
323.15 K | 1070.08
333.15 K | 1060.03
